Test results reported in patent publication US12404232B2, “Compounds and compositions for intracellular delivery of therapeutic agents” (ModernaTX, Inc., priority 2015, dated 2025).

Columns and labels:
non-human primates = test: Tolerability in non-human primates (clinical chemistry, hematology, observations); assay type: in vivo, Cynomolgus monkeys
Description: The tolerability and efficacy of nanoparticle compositions to non-human primates was also investigated using a sample formulation including Compound 18. The formulation was prepared according to the standard MC3 formulation described above and included an hEPO mRNA. Primates were administered a single dose of 0.05 (Group 1), 0.3 (Group 2), or 1.0 (Group 3) mpk via intravenous infusion for 60 minutes. Three primates were administered each dose. Expression of hEPO was measured prior to dosing and at 2, 6, 24, 48, and 96 hours post-treatment (Table 26). Table 28 includes levels of indicators of complement activation, while Table 29 includes cytokine induction data.
In general, lower doses were better tolerated. High doses induced body temperature elevation and hunched posture, which is similar to the behavior observed for primates administered higher doses of MC3 formulations.

mice [1] = test: Luc expression (bioluminescence, total flux) after intravenous administration to mice; assay type: in vivo
Method in brief: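 Whole-body bioluminescence was read at 3, 6 and 24 h after a single IV 0.5 mg/kg dose of Luc mRNA nanoparticles in mice, six per group. Total flux (AUC) is reported relative to the MC3 benchmark.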

mice [2] = test: Luc expression in liver, lung, spleen and femur after intravenous administration to mice; assay type: in vivo; details: Luc mRNA, i.v. to mice, 0.5 mpk, 6 hours
Description: The efficacy of the nanoparticle compositions presented in Table 1A was further evaluated by measuring the expression of modified luciferase in the liver, lung, spleen, and femur upon administration of a given composition. Formulations were administered intravenously to mice (n=3) at a dosage of 0.5 mpk and bioluminescence measured after 6 hours. The standard MC3 formulation and a PBS control were also tested. […] Flux in the liver was lowest for compositions including Compounds 58, 59, 137, and 141. Flux in the spleen was highest for compositions including Compounds 4, 7, 33, 34, 48, 53, 108, 129, 130, and 148, and lowest for compositions including Compounds 9, 59, 124, and 141.

mice [3] = test: Luc expression (total flux) after intramuscular administration; assay type: in vivo; details: 6 hours after intramuscular administration, Luc mRNA (Table 5B)

Q: Which “White blood cell counts” value (non-human primates; non-human primates, 0.05, 0.3 or 1.0 mpk) does the source give for `CCCCCCCCCOC(=O)CCCCCCCN(CCO)CCCCCCCC(=O)OC(CCCCCCCC)CCCCCCCC` [Compound 18, Heptadecan-9-yl 8-((2-hydroxyethyl)(8-(nonyloxy)-8-oxooctyl)amino)octanoate] here?
A: slightly elevated in animals in the high dose group

Q: And the “reticulocyte counts on Day 5” value (non-human primates; non-human primates, all groups)?
A: marked increase

Q: With `CCCCCC=CCC=CCCCCCCCCC(CCCCCCCCC=CCC=CCCCCC)OC(=O)CCCN(C)C` (stereo not shown) [MC3, heptatriaconta-6,9,28,31-tetraen-19-yl 4-(dimethylamino)butanoate, reference compound] as the compound, how does the “AUC (p/s*h)” value (mice [1]; Luc total flux (Table 3D)) read?
A: 1.909E+011 p/s*h

Q: And the “6 h Lipid/MC3 G.M. Luc Expression” value (mice [1]; i.v. administration, 6 h, geometric mean)?
A: 1

Q: What about the “AUC (h*p/s)” value (mice [1]; i.v. administration, total Luc flux (Table 3C)) of the same compound?
A: 8.24E+10 h*p/s

Q: What about the “Total Flux Femur” value (mice [2]) of the same compound?
A: 2.56E+06

Q: And the “Total Flux Liver” value (mice [2])?
A: 2.57E+09

Q: What about the “Total Flux Lung” value (mice [2]) of the same compound?
A: 1.27E+07

Q: And the “Total Flux Spleen” value (mice [2])?
A: 2.85E+07

Q: And the “Total flux (p/s) 0.01 mpk Dose” value (mice [3])?
A: 3.23E+07 p/s
